Experimental data: article PMC11872639 (Food Chemistry: Molecular Sciences, 2025)
Read-outs that look alike come from different tables or passages of the source. Blank lines part the entries; values can stand above or below the molecule they belong to.

How the values were obtained:
TAS1R2/TAS1R3 = molecular target: T1, TAS1R2/TAS1R3 (Homo sapiens, UniProt Q7RTX0+Q8TE23); assay: Calcium mobilization assay, HEK293T-Gα16gust44 cells expressing TAS1R2/TAS1R3; type: cell-based
T1 construct: we performed functional expression of the full-length heterodimeric sweet taste TAS1R2/TAS1R3 receptor using HEK293-derived cells; expressed in transfected cells; host or cells: HEK293T-Gα16gust44 cells transfected with pcDNA6-TAS1R2 and pcDNA4-TAS1R3
T1 sequence (Q8TE23 20-839): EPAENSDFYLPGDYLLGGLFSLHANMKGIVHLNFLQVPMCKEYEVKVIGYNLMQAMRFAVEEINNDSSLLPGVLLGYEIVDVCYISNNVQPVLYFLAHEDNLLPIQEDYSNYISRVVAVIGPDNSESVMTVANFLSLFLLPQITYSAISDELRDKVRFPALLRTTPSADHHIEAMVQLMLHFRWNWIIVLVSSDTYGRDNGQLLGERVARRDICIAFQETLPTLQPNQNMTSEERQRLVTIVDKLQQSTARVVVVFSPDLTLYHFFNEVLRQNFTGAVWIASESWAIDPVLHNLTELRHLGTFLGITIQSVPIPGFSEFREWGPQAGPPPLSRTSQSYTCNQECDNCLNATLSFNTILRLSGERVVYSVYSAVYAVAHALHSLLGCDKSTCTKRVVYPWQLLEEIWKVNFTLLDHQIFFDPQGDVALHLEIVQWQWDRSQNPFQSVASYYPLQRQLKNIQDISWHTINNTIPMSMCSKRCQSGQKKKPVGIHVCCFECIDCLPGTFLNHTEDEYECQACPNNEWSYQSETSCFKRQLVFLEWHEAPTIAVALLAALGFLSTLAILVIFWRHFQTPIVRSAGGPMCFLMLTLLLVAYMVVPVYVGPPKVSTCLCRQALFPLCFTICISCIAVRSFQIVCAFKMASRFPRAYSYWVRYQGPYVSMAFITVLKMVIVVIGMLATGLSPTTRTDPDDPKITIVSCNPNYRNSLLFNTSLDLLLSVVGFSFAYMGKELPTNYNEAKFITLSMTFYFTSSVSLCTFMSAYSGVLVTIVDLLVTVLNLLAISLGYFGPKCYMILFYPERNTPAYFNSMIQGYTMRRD
T1 sequence (Q7RTX0 21-852): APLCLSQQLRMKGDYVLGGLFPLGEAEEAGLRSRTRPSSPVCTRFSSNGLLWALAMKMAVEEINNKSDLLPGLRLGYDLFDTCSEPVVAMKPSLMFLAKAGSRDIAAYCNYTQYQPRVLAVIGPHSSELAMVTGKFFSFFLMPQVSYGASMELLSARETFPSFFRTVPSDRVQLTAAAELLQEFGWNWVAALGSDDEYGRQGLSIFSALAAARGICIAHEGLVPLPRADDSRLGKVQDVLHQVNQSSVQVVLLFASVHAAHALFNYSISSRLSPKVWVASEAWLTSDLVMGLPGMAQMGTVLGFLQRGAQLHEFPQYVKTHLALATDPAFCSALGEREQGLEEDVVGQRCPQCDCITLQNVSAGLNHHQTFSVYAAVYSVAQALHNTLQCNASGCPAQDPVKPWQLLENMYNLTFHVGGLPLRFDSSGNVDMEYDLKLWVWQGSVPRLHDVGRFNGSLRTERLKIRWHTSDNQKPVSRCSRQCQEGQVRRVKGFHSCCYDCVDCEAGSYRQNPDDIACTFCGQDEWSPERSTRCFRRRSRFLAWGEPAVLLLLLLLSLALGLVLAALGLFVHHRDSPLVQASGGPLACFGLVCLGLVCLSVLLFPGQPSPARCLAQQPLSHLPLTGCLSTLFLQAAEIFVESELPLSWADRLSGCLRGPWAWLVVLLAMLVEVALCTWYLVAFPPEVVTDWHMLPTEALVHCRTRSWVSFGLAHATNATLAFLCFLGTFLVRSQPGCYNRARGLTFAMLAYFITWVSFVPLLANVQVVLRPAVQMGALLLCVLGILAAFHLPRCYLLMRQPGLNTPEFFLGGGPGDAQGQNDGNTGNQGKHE
Description: (§1) The synthetic cDNA optimized for human TAS1R2 and TAS1R3 expression was cloned into the pcDNA6-myc-HisA and pcDNA4-myc-HisA vectors, generating the pcDNA6-TAS1R2 and pcDNA4-TAS1R3 plasmids, respectively (Genewiz).
(§2) The stable HEK293T-Gα16gust44 cells were constructed by stable transfection of pcDNA3.1/Hygro-Gα16gust44 plasmid into HEK293T cells using Lipofectamine 2000 (Invitrogen). After 48 h, the cells were selected with 400 μg/mL hygromycin for 2–3 weeks. Thirty individual hygromycin-resistant colonies were expanded and screened for functional expression after transient co-transfection with pcDNA6-TAS1R2 and pcDNA4-TAS1R3 and measurement of calcium responses to sucralose. In the same way, clone selection was done under zeocin selection (250 μg/mL) to generate a stable HEK293T-Gα16gust44-TAS1R3 cell line for further calcium mobilization assays.
(§3) Forty-eight hours before the assay, HEK293T-Gα16gust44 or HEK293T-Gα16gust44-TAS1R3 cells were plated (4 × 10^4 cells/well) on poly-D-lysine-coated 96-well plates. Twenty-four hours later, cells were transiently transfected with pcDNA6-TAS1R2 and pcDNA4-TAS1R3 with Lipofectamine 2000 according to the manufacturer's instructions. As a negative control, HEK293T cells were mock-transfected with the empty expression vector. […] The fluorescence intensity was measured for 90 s after the addition of the compounds. […] All concentration-receptor combinations were measured in triplicate, and each experiment was repeated at least four times. The Ca^2+ changes are expressed as fractional changes in fluorescence light intensity: ΔF/F0 = (F—F0)/F0, where F is the fluorescence light intensity at each point and F0 is the value of emitted fluorescent light before the stimulus application. For the calculation of dose-response relationships, the changes in fluorescence upon stimulus application were averaged, mock-subtracted and baseline-corrected. The resulting dose-response data were fitted using a four-parameter logistic equation. The half-maximal effective concentrations (EC50 values) were calculated using SigmaPlot software.

TAS1R3 = molecular target: T2, TAS1R3 (Homo sapiens, UniProt Q7RTX0); assay: Calcium mobilization assay, HEK293T-Gα16gust44 cells stably expressing TAS1R3 alone; type: cell-based
T2 construct: we performed functional expression of the full-length heterodimeric sweet taste TAS1R2/TAS1R3 receptor using HEK293-derived cells; expressed in transfected cells
T2 sequence (Q7RTX0 21-852): T1 sequence (Q7RTX0 21-852)
Description: as §1, §2, §3

TAS1R3-VFT = molecular target: T3, TAS1R3-VFT (Homo sapiens, UniProt Q7RTX0); assay: Ligand binding by intrinsic tryptophan fluorescence, TAS1R3-VFT
T3 construct: pET28-TAS1R3-VFT encodes an N-terminal His6-tag followed by TAS1R3-VFT (Ala21-Ser497) and the Strep-tag II; made in house
T3 sequence (Q7RTX0 21-497): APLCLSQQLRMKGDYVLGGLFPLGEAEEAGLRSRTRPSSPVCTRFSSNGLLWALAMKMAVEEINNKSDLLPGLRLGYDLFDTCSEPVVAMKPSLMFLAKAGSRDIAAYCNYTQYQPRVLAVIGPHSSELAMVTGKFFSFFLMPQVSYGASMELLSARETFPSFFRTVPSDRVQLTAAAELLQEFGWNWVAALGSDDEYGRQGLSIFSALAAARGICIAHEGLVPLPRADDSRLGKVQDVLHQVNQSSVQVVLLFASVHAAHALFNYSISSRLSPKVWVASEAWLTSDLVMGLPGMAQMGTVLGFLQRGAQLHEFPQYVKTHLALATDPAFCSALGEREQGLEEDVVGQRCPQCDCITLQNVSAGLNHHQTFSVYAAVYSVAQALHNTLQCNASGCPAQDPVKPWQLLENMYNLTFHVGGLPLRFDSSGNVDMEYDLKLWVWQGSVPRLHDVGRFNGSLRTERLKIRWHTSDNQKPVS
Description: (§4) The intrinsic fluorescence of TAS1R-VFTs was measured using a Cary Eclipse spectrofluorometer (Varian Instruments, Palo Alto, CA, USA) equipped with a Peltier temperature control unit. […] Ligand solutions were freshly prepared in the same buffer. […] The temperature was kept constant at 20 °C. Fluorescence measurements were corrected for dilution, bleaching and nonspecific buffer quenching. Kd values and standard errors were calculated from a plot of the ratio between the fluorescence intensity variation and the maximum of fluorescence intensity variation versus concentration of total ligand, obtained with a standard non-linear regression method and using a one-site saturation ligand binding equation within SigmaPlot software (version 15.0, Grafiti, Palo Alto, CA, USA). […] The Kd values of ligand-receptor interactions were determined using the equation ΔF/ΔFmax = Bmax [L]/(Kd + [L]), where Kd is the apparent dissociation constant, ΔF is the difference between the fluorescence intensity at a given concentration of ligand and the fluorescence intensity in the absence of ligand, ΔFmax is the difference at infinite ligand concentration [L], Bmax is the maximum fluorescence signal, and [L] corresponds to the concentration of ligands. The reported Kd values are the average of six measurements performed on at least three independently refolded protein samples. All compounds were obtained from Sigma-Aldrich. Statistical analyses: Dunnett's test (p ≤ 0.05) was used to determine the statistical significance between data means.

TAS1R1-VFT = molecular target: T4, TAS1R1-VFT (Homo sapiens, UniProt Q7RTX1); assay: Ligand binding by intrinsic tryptophan fluorescence, TAS1R1-VFT
T4 construct: followed by TAS1R1-VFT (Phe21-Ser495) or TAS1R2-VFT (Ala22-Ser493) and a second His6-tag; His6-tag (thrombin-cleavable) (N); made in house
T4 sequence (Q7RTX1 21-495): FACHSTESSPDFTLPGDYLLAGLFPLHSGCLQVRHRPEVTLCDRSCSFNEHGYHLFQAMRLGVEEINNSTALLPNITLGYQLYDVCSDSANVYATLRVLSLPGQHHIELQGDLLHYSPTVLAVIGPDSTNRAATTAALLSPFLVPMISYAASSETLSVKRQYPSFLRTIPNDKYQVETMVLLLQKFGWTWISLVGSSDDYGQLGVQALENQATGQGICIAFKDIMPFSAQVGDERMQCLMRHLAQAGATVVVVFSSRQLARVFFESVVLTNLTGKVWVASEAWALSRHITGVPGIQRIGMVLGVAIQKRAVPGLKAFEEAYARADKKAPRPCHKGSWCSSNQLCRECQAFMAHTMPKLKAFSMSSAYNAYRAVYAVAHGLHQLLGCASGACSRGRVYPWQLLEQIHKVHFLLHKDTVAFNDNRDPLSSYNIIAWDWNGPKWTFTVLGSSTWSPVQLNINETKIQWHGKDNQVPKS
Description: as §4, with “All compounds were obtained from Sigma-Aldrich. Statistical analyses: Dunnett's test (p ≤ 0.05) was used to determine the statistical significance between data means.” left out

[1] = sweet compound alone (Fig. 3, IMP series)
[2] = sweet compound alone (Fig. 5c,d, MSG series)

EC50 (TAS1R2/TAS1R3; [1]): 24 ± 2 µM
SMILES: C=C(C)C1CC=C(/C=N/O)CC1 (stereo in doubt) [Perillartine, perillartine]

EC50 (TAS1R3; CaCl2 alone, TAS1R3 alone): 47 ± 13 mM
max (maximal amplitude, ΔF/F0) (TAS1R3; CaCl2 alone, TAS1R3 alone): 0.37
max (maximal amplitude, ΔF/F0) (TAS1R3; CaCl2 in the presence of 10 mM IMP, TAS1R3 alone): 0.17
max (maximal amplitude, ΔF/F0) (TAS1R3; CaCl2 in the presence of 10 mM cyclamate, TAS1R3 alone): 0.14
EC50 (TAS1R2/TAS1R3; CaCl2 alone, TAS1R2/TAS1R3): 28000 ± 3000 µM
max (maximal amplitude, ΔF/F0) (TAS1R2/TAS1R3; CaCl2 alone, TAS1R2/TAS1R3): 0.40
max (maximal amplitude, ΔF/F0) (TAS1R2/TAS1R3; CaCl2 in the presence of 10 mM IMP, TAS1R2/TAS1R3): 0.28
max (maximal amplitude, ΔF/F0) (TAS1R2/TAS1R3; CaCl2 in the presence of 10 mM cyclamate, TAS1R2/TAS1R3): 0.19
SMILES: [Ca+2].[Cl-].[Cl-] [CaCl2]

amplitude of the maximum calcium-induced response of TAS1R3 reduced to (TAS1R3; modulator at 10 mM, CaCl2 stimulation): ~62%
EC50 (TAS1R2/TAS1R3; [1]): 2310 ± 954 µM
SMILES: O=S(=O)(O)NC1CCCCC1 [Cyclamate, cyclamate]

SMILES: N[C@H](CCC(=O)O)C(=O)O [D-Glu, D-glutamate]
Kd TAS1R3-VFT (TAS1R3-VFT; ligand alone, absence of IMP, mean ± SEM, 20 °C, pH 8.0): nb
impact on the fluorescence intensity of TAS1R3-VFT (TAS1R3-VFT; negative control): no significant impact
impact on the fluorescence intensity of TAS1R1-VFT (TAS1R1-VFT; negative control): no significant impact

Kd (TAS1R3-VFT; read-out: Kd TAS1R3-VFT): 1180 ± 330 nM
Kd (TAS1R1-VFT): 210 ± 60 nM
SMILES: N[C@@H](CC(=O)O)C(=O)O [L-Asp, L-aspartate]

SMILES: N[C@@H](CCC(=O)O)C(=O)O [L-Glu, L-glutamate]
Kd (TAS1R3-VFT): 750 ± 200 nM

EC50 (TAS1R2/TAS1R3; [1]): 41 ± 29 µM
SMILES: COc1ccc(CCC(=O)c2c(O)cc(O[C@@H]3O[C@H](CO)[C@@H](O)[C@H](O)[C@H]3O[C@@H]3O[C@@H](C)[C@H](O)[C@@H](O)[C@H]3O)cc2O)cc1O [NHDC, neohesperidine dihydrochalcone]

EC50 (TAS1R2/TAS1R3; [1]): 0.97 ± 0.12 µM
EC50 (TAS1R2/TAS1R3; sweet compound alone (Fig. 5a,b, GMP series)): 0.3 ± 0.08 µM
EC50 (TAS1R2/TAS1R3; [2]): 1.09 ± 0.16 µM
SMILES: COC(=O)[C@H](Cc1ccccc1)NC(=O)[C@H](CC(=O)O)NCCC(C)(C)C [Neotame, neotame]

EC50 (TAS1R2/TAS1R3; [1]): 57 ± 13 µM
EC50 (TAS1R2/TAS1R3; [2]): 56 ± 6 µM
decrease in EC50 values by IMP (synergistic effect) (TAS1R2/TAS1R3; sweetener with IMP vs sweetener alone): 3 fold
SMILES: OC[C@H]1O[C@H](O[C@]2(CCl)O[C@H](CCl)[C@@H](O)[C@@H]2O)[C@H](O)[C@@H](O)[C@H]1Cl [Sucralose, sucralose]
